We go through one compound from paper PMC5920109, “Identification, Expression, and Regulation of an Omega Class Glutathione S-transferase in Rhopalosiphum padi (L.) (Hemiptera: Aphididae) Under Insecticide Stress” (Frontiers in Physiology, 2018).

In general, Km refers to the substrate concentration at which the rate is half of its maximum.

This assay has as its target T1, RpGSTO1 (Rhopalosiphum padi, UniProt A0A2U9PFG6).
T1 construct: pET-28a His-tag (tag removal not mentioned), E. coli BL21(DE3), BamHI/HindIII
T1 sequence (A0A2U9PFG6 1-239): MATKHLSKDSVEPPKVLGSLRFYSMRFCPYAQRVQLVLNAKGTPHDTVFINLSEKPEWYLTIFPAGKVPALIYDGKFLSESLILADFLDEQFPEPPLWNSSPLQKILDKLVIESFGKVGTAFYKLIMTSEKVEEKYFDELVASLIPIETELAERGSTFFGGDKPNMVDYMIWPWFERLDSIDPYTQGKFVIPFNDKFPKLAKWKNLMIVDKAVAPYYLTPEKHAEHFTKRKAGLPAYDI
Briefly: spectrophotometric GSH conjugation at […] nm, double reciprocal plot. The assay is classed as biochemical. Particulars: 5 mM GSH; 0.02-0.14 mM CDNB; pH 7.0, 0.1 M sodium phosphate.

Consider `O=[N+]([O-])c1ccc(Cl)c([N+](=O)[O-])c1` [CDNB, 1-chloro-2,4-dinitrobenzene], for which the Km worked out at 120 µM.
